Assay results from patent publication US20250041305A1, “PHARMACEUTICAL COMPOSITION OF SEPIAPTERIN” (PTC Therapeutics, Inc., priority 2021, published 2025).

Assay: Roller compaction processability observation and in-process data
Details: unformulated
Excerpt: Formulations were manufactured at 100 g scale by roller compaction using the compositions as described in Table 17. The formulations were designed to evaluate the effect of formulation variables including drug loading, ratios of diluents and levels of other excipients on the processability, as shown in Table 17.
In the tables above, BD refers to Bulk Density, DT refers to Disintegration time, HR refers to Hausner ratio and TD refers to tapped density. Disintegration time is for a 0.5-inch ribbon. The plus signs in the table refer to the following observed characteristics: “+” is soft, “++” is medium hard, “+++” is hard, and “++++” is very hard.
To improve the flow properties of the sepiapterin composition of the invention, a dry granulation approach was selected. The manufacturing process included preblending, roller compaction followed by milling, final blending, and sachet filling. The batch analyses data from the selected manufacturing process yielded acceptable drug product within the specification limit. […]

C[C@H](O)C(=O)C1=Nc2c(nc(N)[nH]c2=O)NC1 [sepiapterin]
bulk density: low bulk density
flow characteristics: poor flow characteristics
